According to patent US8802700B2 (Vertex Pharmaceuticals Incorporated, priority 2010, dated 2014):

Biological target: T1, ΔF508-CFTR (Homo sapiens, UniProt P13569, DEL508-508)
T1 construct: expressed in transfected cells
Assay: Membrane potential optical assay (FRET voltage-sensor dyes, VIPR), identification of potentiator compounds
Assay type: cell-based
Details: Table 3; assay not given; read-out: % Activity (% Efficacy, relative efficacy)
How it was run: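 Potentiator screen measured membrane potential via FRET between CC2-DMPE donor and DiSBAC2(3), read on VIPR II. Compound went in with the first addition of chloride-free gluconate bath; cells were ΔF508-CFTR-expressing NIH3T3 mouse fibroblasts, temperature-corrected at 27 °C for 24 h.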

T1 sequence (P13569 with tags, fused parts or gaps DEL508-508): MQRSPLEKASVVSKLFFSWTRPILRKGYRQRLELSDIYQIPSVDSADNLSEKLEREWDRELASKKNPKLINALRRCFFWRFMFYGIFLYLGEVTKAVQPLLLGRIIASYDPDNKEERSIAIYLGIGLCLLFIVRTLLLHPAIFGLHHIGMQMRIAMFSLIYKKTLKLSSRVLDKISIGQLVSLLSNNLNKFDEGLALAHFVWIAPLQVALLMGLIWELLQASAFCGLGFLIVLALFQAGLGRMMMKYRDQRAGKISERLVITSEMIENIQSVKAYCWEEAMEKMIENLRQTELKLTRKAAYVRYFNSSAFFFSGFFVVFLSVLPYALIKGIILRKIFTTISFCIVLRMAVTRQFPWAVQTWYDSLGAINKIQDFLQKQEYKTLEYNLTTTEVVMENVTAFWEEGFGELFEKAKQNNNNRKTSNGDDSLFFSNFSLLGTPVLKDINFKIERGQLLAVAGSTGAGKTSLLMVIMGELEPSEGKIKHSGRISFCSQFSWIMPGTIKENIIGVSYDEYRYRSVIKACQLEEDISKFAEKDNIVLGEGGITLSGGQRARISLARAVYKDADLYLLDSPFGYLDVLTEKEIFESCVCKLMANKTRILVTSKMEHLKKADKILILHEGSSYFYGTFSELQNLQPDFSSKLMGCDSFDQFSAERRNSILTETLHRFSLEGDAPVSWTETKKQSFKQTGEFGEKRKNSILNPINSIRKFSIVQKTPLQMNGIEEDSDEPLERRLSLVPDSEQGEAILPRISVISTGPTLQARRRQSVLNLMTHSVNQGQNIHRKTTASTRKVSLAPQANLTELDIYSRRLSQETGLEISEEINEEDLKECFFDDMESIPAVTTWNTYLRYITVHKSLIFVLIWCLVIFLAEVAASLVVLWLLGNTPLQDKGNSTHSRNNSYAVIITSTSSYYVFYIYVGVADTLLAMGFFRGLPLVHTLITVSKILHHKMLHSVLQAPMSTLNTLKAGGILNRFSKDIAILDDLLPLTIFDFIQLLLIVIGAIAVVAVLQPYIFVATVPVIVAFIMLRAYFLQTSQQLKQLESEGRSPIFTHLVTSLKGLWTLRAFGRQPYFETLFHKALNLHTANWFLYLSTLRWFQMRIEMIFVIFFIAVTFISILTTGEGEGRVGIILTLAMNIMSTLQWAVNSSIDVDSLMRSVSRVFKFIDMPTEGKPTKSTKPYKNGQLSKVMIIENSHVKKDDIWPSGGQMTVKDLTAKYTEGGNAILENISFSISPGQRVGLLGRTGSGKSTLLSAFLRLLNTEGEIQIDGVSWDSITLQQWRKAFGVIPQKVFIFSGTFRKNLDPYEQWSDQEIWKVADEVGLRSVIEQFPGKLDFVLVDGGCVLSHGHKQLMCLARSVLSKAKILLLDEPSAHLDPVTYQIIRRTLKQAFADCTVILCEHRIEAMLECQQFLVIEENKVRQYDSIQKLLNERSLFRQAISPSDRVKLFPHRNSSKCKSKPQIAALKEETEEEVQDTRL

SMILES	Emax
Cc1ccc2c(=O)c(C(=O)Nc3cc(O)c(C(C)(C)C)cc3C(C)(C)C)c[nH]c2c1 [Compound 640, N-(5-hydroxy-2,4-ditert-butyl-phenyl)-7-methyl-4-oxo-1H-quinoline-3-carboxamide]	> 100%
C=Cc1ccc(NC(=O)c2c[nH]c3ccccc3c2=O)cc1 [Compound 452, 4-oxo-N-(4-vinylphenyl)-1H-quinoline-3-carboxamide]	25 to 100%
O=C(Nc1ccccn1)c1c[nH]c2ccccc2c1=O [Compound 155, 4-oxo-N-(2-pyridyl)-1H-quinoline-3-carboxamide]	< 25%
COc1ccc2[nH]cc(C(=O)Nc3ccc(N4[C@H](C)CC[C@H]4C)cc3C(F)(F)F)c(=O)c2c1 [Compound 685, N-(4-((2R,5R)-2,5-dimethylpyrrolidin-1-yl)-2-(trifluoromethyl)phenyl)-6-methoxy-4-oxo-1,4-dihydroquinoline-3-carboxamide]	25 to 100%
Cc1c(NC(=O)c2c[nH]c3ccccc3c2=O)cccc1C(F)(F)F [Compound 387, N-[2-methyl-3-(trifluoromethyl)phenyl]-4-oxo-1H-quinoline-3-carboxamide]	25 to 100%
O=C(Nc1ccc2cc(C(F)(F)F)[nH]c2c1)c1c[nH]c2ccccc2c1=O [Compound 537, 4-oxo-N-[2-(trifluoromethyl)-1H-indol-6-yl]-1H-quinoline-3-carboxamide]	25 to 100%
O=C(Nc1ccccc1-c1ccc(OC(F)(F)F)cc1)c1c[nH]c2ccccc2c1=O [Compound 388, 4-oxo-N-[2-[4-(trifluoromethoxy)phenyl]phenyl]-1H-quinoline-3-carboxamide]	25 to 100%
CS(=O)(=O)c1ccc(-c2ccccc2NC(=O)c2c[nH]c3ccccc3c2=O)cc1 [Compound 326, N-[2-(4-methylsulfonylphenyl)phenyl]-4-oxo-1H-quinoline-3-carboxamide]	25 to 100%
CC1(c2cc(F)c(NC(=O)c3cnc4ccccc4c3O)cc2O)CCCCCCC1 [Compound 403, N-[2-fluoro-5-hydroxy-4-(1-methylcyclooctyl)-phenyl]-4-hydroxy-quinoline-3-carboxamide]	25 to 100%
CC(C)(C)c1cc2cc[nH]c2cc1NC(=O)c1c[nH]c2cccc(O)c2c1=O [Compound 500, 5-hydroxy-4-oxo-N-(5-tert-butyl-1H-indol-6-yl)-1H-quinoline-3-carboxamide]	25 to 100%
CCOC(=O)Nc1cc(NC(=O)c2c[nH]c3ccccc3c2=O)ccc1C(C)(C)C [Compound 127, [5-[(4-oxo-1H-quinolin-3-yl)carbonylamino]-2-tert-butyl-phenyl]aminoformic acid ethyl ester]	25 to 100%
O=C(Nc1nc2ccccc2[nH]1)c1c[nH]c2ccccc2c1=O [Compound 216, N-(3H-benzoimidazol-2-yl)-4-oxo-1H-quinoline-3-carboxamide]	< 25%
CC(C)c1ccccc1NC(=O)c1c[nH]c2ccccc2c1=O [Compound 36, N-(2-isopropylphenyl)-4-oxo-1H-quinoline-3-carboxamide]	25 to 100%
CC(C)(C)c1cc(C#N)c(NC(=O)c2c[nH]c3ccccc3c2=O)cc1O [Compound 476, N-(4-tert-Butyl-2-cyano-5-hydroxyphenyl)-1,4-dihydro-4-oxoquinoline-3-carboxamide]	25 to 100%
CC(C)(C)c1ccc(NC(=O)c2c[nH]c3ccccc3c2=O)cc1S(N)(=O)=O [Compound 268, 4-oxo-N-(3-sulfamoyl-4-tert-butyl-phenyl)-1H-quinoline-3-carboxamide]	25 to 100%
C#Cc1ccc(NC(=O)c2c[nH]c3ccccc3c2=O)cc1 [Compound 332, N-(4-ethynylphenyl)-4-oxo-1H-quinoline-3-carboxamide]	25 to 100%
